Usually EC50 stands for the concentration giving half of the maximal effect.

This passage reports EC50 results from PubChem BioAssay AID1902 (Broad Institute, 2009).

Calls of active or inactive are those of the source.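 The calls were made as follows: active = EC50 no more than a set limit of log units above the highest dose; inactive = the rest.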

This assay concerns the target S. pyogenes SKKanGAS, kanamycin survival, BacTiterGlo, 6 h. Put plainly: SKKanGAS survival reduction under kanamycin, dose response, streptokinase promoter inhibitor project, SKKanGAS strain, luminescence, dose confirmation (AID 1902).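 Also: lower survival reflects blocked streptokinase promoter driving kanamycin resistance gene.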
As for `O=C(N/N=C/c1sc2ccccc2c1O)c1ccccc1`, the EC50 was 0.929 µM.

Consider `Fc1cccc2sc(Nc3nc4cc5c(cc4s3)OCO5)nc12`, for which the EC50 is > 15 µM (inactive).

For the compound `CCN1CCN(C(CNS(=O)(=O)c2ccc(C)cc2)c2cccnc2)CC1` (stereo unspecified), the EC50 is > 15 µM (inactive).

In the case of `CCC(=O)NC(c1ccc(OC)c(OC)c1)c1cc(Cl)c2cccnc2c1O` (stereo unspecified), the EC50 is 5 µM.

`CCN(CC)C(=O)c1cc(-c2ccc(Br)cc2)on1`: the EC50 is > 15 µM (inactive).

For the compound `Cc1nn(-c2ccccc2)c(Cl)c1/C=C1\SC(=S)N(CCCCCC(=O)O)C1=O`, the EC50 is 3.04 µM.

For `CC(C)(C)c1ccc(CSc2cnn(C(C)(C)C)c(=O)c2Cl)cc1`, the EC50 is 4.99 µM.

With `COc1ccc(C(=O)/C=C/c2ccc(O)cc2)c(O)c1CC=C(C)C`, the EC50 is 2.14 µM.

Consider `C[C@H](CCC(=O)NCC(=O)O)[C@H]1CC[C@H]2C3[C@H](O)C[C@@H]4C[C@H](O)CC[C@]4(C)[C@H]3C[C@H](O)[C@]12C` (stereo partly specified), for which the EC50 was > 15 µM (inactive).

In the case of `Cc1ccccc1Nc1c(-c2ccccn2)nc2c(C)cccn12`, the EC50 is 0.397 µM.

For the compound `CCc1c(C)sc2nc(C(C)C)nc(SCC(=O)N3CCc4ccccc4C3)c12`, the EC50 is 7.89 µM.

Take `C/C(=N\NC(=S)NCc1ccccc1)c1cccc(Br)c1`: the EC50 is 5.44 µM.

Regarding `c1ccc(CNc2nc(-c3ccccn3)nc3ccccc23)cc1`, the EC50 was 0.418 µM.

Regarding `O=C(Nc1ccc(OCC(F)(F)C(F)F)c(C(F)(F)F)c1)c1ccc(Cl)cc1`, the EC50 is 3.62 µM.

`COc1cc(C(=O)NC(=S)Nc2ccc(Cc3ccncc3)cc2)cc(OC)c1OC`: the EC50 is 2.45 µM.

Take `C/C(=N\NC(=O)COc1ccccc1-c1ccccc1)c1ccc(O)cc1O`: the EC50 was 3.89 µM.

For `COc1cccc(-c2coc3cc4oc(=O)c(CCC(=O)O)c(C)c4cc23)c1`, the EC50 is 5.12 µM.

For `Cc1cccc(NC(=O)c2ccc(S(=O)(=O)N(C)CC3CCCO3)cc2)c1C` (stereo unspecified), the EC50 was > 15 µM (inactive).

For `COc1ccc(NC(=O)c2ccc3c(c2)NC(=O)CS3)cc1S(=O)(=O)Nc1ccc(Br)cc1`, the EC50 was 3.38 µM.

Consider `CN(C)c1ccc(C2C=C(c3ccc(Cl)cc3OC(F)F)Nc3ncnn32)cc1` (stereo unspecified), for which the 50% effective concentration (EC50) is 10.8 µM.

As to `COc1ccc2c(c1)c(CC(=O)Nc1cccc(S(N)(=O)=O)c1)c(C)n2C(=O)c1ccc(Cl)cc1`, the EC50 was 3.28 µM.

With `CCCOc1ccc(/C(O)=C2/C(=O)C(=O)N(c3ccccn3)C2c2ccc(OC)cc2)cc1C` (stereo unspecified), the EC50 is 6.28 µM.

Take `C[C@H]1c2cccc(O)c2C(O)=C2C(=O)[C@]3(O)C(O)=C(C(N)=O)C(=O)[C@@H](N(C)C)C3[C@@H](O)C21` (stereo partly specified): the EC50 is under 0.06 µM.

`CC(C)c1ccc(OCC(=O)NNC(=S)NC(=O)C2CC2)cc1`: the EC50 is 0.797 µM.

As for `CCC1=NN2C(=N)/C(=C\c3cccn3-c3ccc(C)c(C)c3)C(=O)N=C2S1`, the EC50 was 3.91 µM.

With `c1ccc(-c2nc(N3CCCCCC3)c3ccccc3n2)nc1`, the EC50 was 1.43 µM.

Take `Cc1cccc(-n2nc(C(=O)c3ccco3)cc(-c3nc4ccccc4[nH]3)c2=N)c1`: the EC50 was 3.36 µM.

For the compound `Nc1nonc1-n1nnc(C(=O)N/N=C/c2cc(Cl)ccc2O)c1CN1CCCCCC1`, the EC50 was 5.76 µM.

For `CC(C)c1ccc(NC(=O)NC(C)c2ccc3c(c2)OCO3)cc1` (stereo unspecified), the EC50 is > 15 µM (inactive).

In the case of `Cc1nn(-c2ccccc2)c2c1C(c1ccc(O)c(O)c1)N1C(=N2)C(Nc2ccccc2)=Nc2ccccc21` (stereo unspecified), the EC50 was 1.36 µM.

On to `CC(C)(C)c1ccc(C(=O)N/N=C/c2ccccn2)cc1`, for which the EC50 is 3.3 µM.

Take `CN(C)CCOc1ccc(/C(=C(/CCCl)c2ccccc2)c2ccccc2)cc1`: the EC50 is 4.95 µM.

As to `CC1CCCC(C)N1c1nnc(NC(=O)c2cc(-c3ccc(Br)cc3)on2)s1` (stereo unspecified), the concentration giving a half-maximal response (EC50) is 2.79 µM.

For the compound `CC1=C/C(=N\NC(=S)NCCc2ccccc2)CC(C)(C)C1`, the half-maximal effective concentration (EC50) was 2.58 µM.

On to `Cc1cc(NC(=O)CN2C(=O)c3ccccc3C2=O)no1`, for which the EC50 was > 15 µM (inactive).

For the compound `CC1(C)Cc2c(cnn2-c2ccccc2)C(NC(=O)CCCN2CCCC2=O)C1` (stereo unspecified), the EC50 is > 15 µM (inactive).
